These results are taken from article PMC7449217, “The FDA-Approved Drug Nelfinavir Inhibits Lytic Cell-Free but Not Cell-Associated Nonlytic Transmission of Human Adenovirus” (Antimicrobial Agents and Chemotherapy, 2020).

Where a name gives a salt, the structure may show the parent alone. Read-outs that look alike come from different tables or passages of the source.

In data set [1] the test system is HAdV-C2-dE3B-GFP. Briefly: quantification of viral protein expression (CMV-GFP, hexon) in infected A549 cells. The format is cell-based, human adenovirus. The note with it: 46 hpi, at the tested concentrations. As to the method: Infection, HAdV hexon immunofluorescence staining, and imaging were performed in technical quadruplicates, as described above for the microscopic plaque assay. Single nuclei (Hoechst) were segmented using CellProfiler ([178]). Median GFP and hexon signals per nucleus were measured, and infected nuclei were classified using the median GFP or hexon signal per nucleus. Subsequently, the mean and standard deviation (SD) over all infected nuclei per well were calculated using R version 3.3.2 ([179]). Data were plotted using GraphPad (version 8.1.2; GraphPad Software, Inc.).

Data set [2] deals with HAdV-C2-dE3B-GFP-infected A549 cells. Briefly: cellular impedance measurement (xCELLigence) of infected A549 cells, delay of cell death. The format is cell-based, human. The settings on record: 100 μM nelfinavir. As to the method:
(§1) Impedance-based assays were performed using the xCELLigence system (Roche Applied Science and ACEA Biosciences) as described previously ([152], [153]), according to the manufacturer’s instructions ([177]), in a cell culture environment (37°C, 5% CO2, and 95% humidity) in duplicates. The 16-well E plates have a gold-plated sensor array embedded in their glass bottom by which the electrical impedance across each well bottom is measured. The impedance per well, termed the cell index (CI), is recorded as a dimensionless quantity. The background CI was assessed following the addition of 50 μl supplemented medium to each well and equilibration in the incubation environment. After 30 min of equilibration, 9,000 A549 cells in 50 μl supplemented medium were added per well, and measurement was started.
For the quantification of nelfinavir effects on the cytopathogenicity of HAdV-C2-dE3B-GFP compared to HAdV-C2-dE3B-GFP-dADP infection, 50 μl of the supernatant was removed 18 h later and replaced with nelfinavir- and virus-supplemented medium. […] The delay of infection-induced cytotoxicity was calculated as the time point at which the CI of the infected cells had decreased by 50% relative to its maximum. […]

For a further data set, the system named is uninfected A549 cells. Briefly: cellular impedance measurement (xCELLigence), nelfinavir toxicity. In kind it is cell-based, human. Here is the method:
as §1
For the quantification of nelfinavir toxicity, 50 μl of the supernatant was removed 18 h later and replaced with 2-fold-concentrated nelfinavir or DMSO solvent as the control dilution in supplemented medium (final nelfinavir concentration of 0.4 to 100 μM in 100 μl/well). The control was supplemented medium. Impedance was recorded every 15 min over 5 days. The TC50 indicates the concentration of nelfinavir that caused a 50% impedance reduction compared to the solvent-treated cells. The TC50 was calculated by nonlinear regression of the solvent-normalized CI over the concentration of nelfinavir.

For data set [3], the system named is HAdV-C2-dE3B-GFP. Details: method as in earlier work. The settings on record: A549, 1.25 μM compound, normalized to neg. ctr., cited from earlier work.

`Cc1c(O)cccc1C(=O)N[C@@H](CSc1ccccc1)[C@H](O)CN1C[C@H]2CCCC[C@H]2C[C@H]1C(=O)NC(C)(C)C` [Nelfinavir, Nelfinavir mesylate]: the “effect on GFP or hexon expression” value in the data set with HAdV-C2-dE3B-GFP [1] is reported as “no effect”. Also, the “toxicity in impedance measurement of infected cells” value in data set [2] is on record as “toxic”. Also, in the data set with uninfected A549 cells (uninfected A549, up to 6.25 µM, more than 4 days of incubation), the “toxicity in cell index (CI) profiles” value is “little signs of toxicity”. In the data set on uninfected A549 cells (uninfected A549 cells, incubation up to 115 h, xCELLigence), the “median toxicity TC50 (cell impedance)” value worked out at 25.7 µM. For the same compound, in the data set with HAdV-C2-dE3B-GFP [3] (analysis EPFL), the “Normalized mean read-outs: Infected nuclei” value was 0.20, the “Normalized mean read-outs: Infection index” value was 0.27, the “Normalized mean read-outs: Nuclei” value is given as 0.74 and the “Normalized mean read-outs: Plaques” value is 0.00. Moreover, in the data set on HAdV-C2-dE3B-GFP [3] (analysis EPFL), the “Normalized mean read-outs: Virus intensity” value was 0.33 AU. Besides, in the data set on HAdV-C2-dE3B-GFP [3] (analysis UZH), the “Normalized mean read-outs: Infected nuclei” value is on record as 0.20, the “Normalized mean read-outs: Infection index” value is 0.23, the “Normalized mean read-outs: Nuclei” value is on record as 0.85 and the “Normalized mean read-outs: Plaques” value is recorded as 0.0274. Further, the “Normalized mean read-outs: Virus intensity” value in the data set on HAdV-C2-dE3B-GFP [3] (analysis UZH) was 0.30 AU.
